Results on two molecules are retold here after patent publication US20050170431A1, “PYK2 crystal structure and uses” (Plexxikon, Inc., priority 2003, published 2005).

Structures are written as SMILES.

For the assay, the target named is T1, Pyk2 kinase domain residues 419 to 691 (Homo sapiens, UniProt Q14289).
T1 construct: PYK2 kinase domain I420-M691 (not including first 21 aa in); made in house; host or cells: E. coli BL21 (DE3) pLysS
Put plainly: PYK2 kinase activity assay in AlphaScreen, inhibition by ATP analogs. The class given is biochemical. The settings on record: Pyk2 at 8 ng/well and ATP at 10 uM; read-out: affinity with Pyk2. The protocol:
As an exemplary kinase assay, the kinase activity of PYK2 was measured in AlphaScreening (Packard BioScience). The kinase buffer (HMNB) contains HEPES 50 mM at pH7.2, Mg/Mn 5 mM each, NP-40 0.1%, and BSA at final 50 ug/ml. AlphaScreening is conducted as described by the manufacturer. In brief, the kinase reaction is performed in 384-well plate in 25 ul volume. The substrate is biotin-(E4Y)3 at final concentration of 1 nM. The final concentration of ATP is 10 uM. For compound testing the final DMSO concentration is 1%. The reaction is incubated in 31° C. for 1 hour.
The Pyk2 kinase domain residues 419 to 691 is an active kinase in AlphaScreen. […] Inhibition by ATP analogs was tested with Pyk2 at 8 ng/well and ATP at 10 uM. […] Adenosine and AMP-PCP have little effect on PYK2 in the concentration tested.
Background: Alpha assays give light when donor and acceptor beads are brought close together.

T1 sequence (Q14289 420-691): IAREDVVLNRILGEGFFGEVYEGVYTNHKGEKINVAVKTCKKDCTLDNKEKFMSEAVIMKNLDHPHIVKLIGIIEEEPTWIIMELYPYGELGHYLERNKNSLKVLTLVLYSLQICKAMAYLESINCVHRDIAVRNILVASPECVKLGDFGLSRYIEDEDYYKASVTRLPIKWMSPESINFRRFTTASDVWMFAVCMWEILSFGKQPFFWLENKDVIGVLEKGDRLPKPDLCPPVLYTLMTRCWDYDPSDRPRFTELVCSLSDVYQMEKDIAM

As for `Nc1ncnc2c1ncn2[C@@H]1O[C@H](COP(=O)(O)OP(=O)(O)O)[C@@H](O)[C@H]1O` [ADT, ADP], the IC50 amounted to 14 µM.
To `Nc1ncnc2c1ncn2[C@@H]1O[C@H](COP(=O)(O)OP(=O)(O)OP(O)(O)=S)[C@@H](O)[C@H]1O` [ATP-g-S] belongs 14 µM.
